Results taken from publication PMC3731216, “Origin and Functional Diversification of an Amphibian Defense Peptide Arsenal” (PLoS Genetics, 2013).
In brackets after ≈: the same amount, converted by molar mass. Where a SMILES comes first, the peptide text is derived from it.

Experiments:
[1] = system: Pseudomonas aeruginosa (ATCC 15692); test: MIC assay in liquid medium (twofold dilutions) against P. aeruginosa; format: cell-based; details: lowest concentration in twofold dilutions with no growth; 5×10^5 CFU/ml, Müller-Hinton broth, 37°C, 18 hours, read by eye; duplicate or triplicate, min–max if variable
Protocol: (§1) Seventeen predicted and recovered peptides were de novo synthesized using solid-phase technology by CASLO Laboratory ApS (Lyngby, Denmark) and delivered as HPLC-purified (>95%) trifluoracetate (TFA) salts. The peptide salts were stored as 5.12 mM stock solutions in 0.01% (V/V) acetic acid/0.2% (m/V) BSA. Peptides were tested against Escherichia coli (ATCC 25922) and Pseudomonas aeruginosa (ATCC 15692), Staphylococcus aureus (ATCC 25923), Micrococcus luteus, Saccharomyces cerevisiae, a protozoan parasite (Trypanosoma brucei brucei), mouse (Mus musculus) red blood cells and mouse spleen tissue cultures (containing 50–60% B-cells, ∼25–30% T-cells, and 5% myeloid cells). All assays were performed in duplicate or triplicate.
(§2) Activity against the bacteria and fungus was measured by assessing the lowest peptide concentration in a series of twofold dilutions at which no growth was detected (known as the minimum inhibitory concentration, MIC). Bacterial and yeast cultures (5×10^5 colony forming units/ml) were prepared in Müller-Hinton (MH) broth and Luria-Bertani (LB) broth respectively and transferred to serial dilutions of peptides ranging from 512 or 256 µM down to 1 or 0.5 µM in 96-well polypropylene plates. After incubation at 37°C (bacteria) or 30°C (S. cerevisiae) for 18 hours, growth of the cultures was checked by eye. In addition to MIC, we determined minimum microbicidal concentrations (MMC) by inoculating samples of the MIC assays on agar plates lacking peptides and checking for overnight growth. In all cases, MIC and MMC were identical.

[2] = system: Escherichia coli (ATCC 25922); test: MIC assay in liquid medium (twofold dilutions) against E. coli; format: cell-based; details: lowest concentration in twofold dilutions with no growth; 5×10^5 CFU/ml, Müller-Hinton broth, 37°C, 18 hours, read by eye; duplicate or triplicate, min–max if variable
Protocol: as §1, §2

Micrococcus luteus = test: MIC assay in liquid medium (twofold dilutions) against M. luteus; format: cell-based; details: lowest concentration in twofold dilutions with no growth; 5×10^5 CFU/ml, Müller-Hinton broth, 37°C, 18 hours, read by eye; duplicate or triplicate, min–max if variable
Protocol: as §1, §2

[3] = system: Trypanosoma brucei brucei AnTat1.1 bloodstream parasites; test: Trypanolytic activity (LC95, 30 minutes); format: cell-based; details: lowest concentration killing at least 95% of parasites after 30 minutes; PSG buffer with 5% FCS, light microscope count; min–max of repeated tests
Protocol: as §1
Activity against T. brucei parasites was assessed as the minimum concentration in a series of twofold dilutions required to kill 95% of parasites in 30 minutes (LC95). Frozen stabilates of Trypanosoma brucei brucei AnTat1.1 bloodstream parasites were expanded by infection of C57Black/6 mice (Janvier). Mice with systemic parasitaemia (typically 4–5 days post infection) were exsanguinated and parasites were purified from heparinized blood by DEAE-cellulose (DE52, Whatman) chromatography. Collected parasites were washed twice with Phosphate-Saline-Glucose buffer (PSG-buffer) and enumerated microscopically using a Bürker hematocytometer. The DEAE52-purified parasites (stock: 10^6 parasites/ml PSG buffer containing 5% FCS) were added to polypropylene 96-well plates containing the serial peptide dilutions to obtain total volumes of 200 µl. After incubation for 30 minutes, trypanolytic activity was assessed using a light microscope by calculating the percentage of dead parasites in a minimum of 200 counted cells.

Saccharomyces cerevisiae = test: MIC assay in liquid medium (twofold dilutions) against S. cerevisiae; format: cell-based; details: lowest concentration in twofold dilutions with no growth; 5×10^5 CFU/ml, Luria-Bertani broth, 30°C, 18 hours, read by eye; duplicate or triplicate, min–max if variable
Protocol: as §1, §2

[4] = system: Staphylococcus aureus (ATCC 25923); test: MIC assay in liquid medium (twofold dilutions) against S. aureus; format: cell-based; details: lowest concentration in twofold dilutions with no growth; 5×10^5 CFU/ml, Müller-Hinton broth, 37°C, 18 hours, read by eye; duplicate or triplicate, min–max if variable
Protocol: as §1, §2

mouse red blood cells = test: Hemolysis of mouse red blood cells (HC50); format: cell-based; details: lowest concentration causing at least 50% hemolysis; mouse blood diluted 1/100 in RPMI, 37°C, 30 minutes, OD 550 nm; 100% = 1% Tween-20
Protocol: as §1
Activity against mouse red blood cells was examined by assessing the lowest peptide concentration in a series of twofold dilutions causing at least 50% hemolysis (HC50). Briefly, heparinized blood was obtained by cardiac puncture of mice euthanized via CO2. The blood was diluted 1/100 in RPMI and added to polypropylene 96-well plates containing the serial peptide dilutions to obtain total volumes of 100 µl. The plates were incubated at 37°C in a humidified atmosphere for 30 minutes and centrifuged at 1400 rpm for 2 minutes to pellet intact red blood cells allowing visual observation of hemolysis. Supernatants were subsequently transferred to 96-well flat-bottom plates to allow spectrophotometry using an ELISA reader (OD measured at 550 nm). The percentage of hemolyis for each peptide concentration was calculated as 100×(ODobs−OD0%)/(OD100%−OD0%), where ODobs is the OD measured for the peptide concentration, OD0% is the average OD in the absence of peptides (0% hemolysis), and OD100% is the average OD in the presence of 1% Tween-20 (100% hemolysis).

[5] = system: T-lymphocytes (naive C57Black/6 splenocytes); test: Inhibition of Concanavalin A-induced T-cell proliferation in spleen cell cultures; format: cell-based, Mus musculus; details: lowest concentration causing at least 50% inhibition of Concanavalin A-induced T-cell proliferation; 2×10^5 splenocytes, 24 h + 18 h [3H]thymidine, 37°C; min–max if variable
Protocol: as §1
Activity against T-lymphocytes was assessed as the lowest peptide concentration in a series of twofold dilutions causing at least 50% inhibition of Concanavalin A-induced T-cell proliferation (IC50). Solutions containin 2×10^5 naive C57Black/6 splenocytes in the presence of 2.5 µg Concanavalin A were added to polypropylene 96-well plates containing the serial peptide dilutions to obtain total volumes of 100 µl. After incubation for 24 hours at 37°C in a humidified atmosphere, the cells were pulsed with [^3H]thymidine and incubated for an additional 18 hours. The amount of [^3H]thymidine incorporation was assessed by a β-counter as a measure of cell proliferation and the percentage of proliferation inhibition for each peptide concentration was calculated as 100×(1−(Tobs/T100%)), where Tobs is the [^3H]thymidine level measured for the peptide concentration, and T100% is the [^3H]thymidine level measured for Concanavalin-A-induced cell proliferation in the absence of peptide (representing 100% proliferation).

[6] = Hydrophobicity as % TFA/AcN solvent at HPLC elution time; format: physicochemical; details: chromatographic; expressed as % TFA/AcN solvent at HPLC elution time

Compound	MIC P. aeruginosa [1]	MIC E. coli [2]	MIC M. luteus (Micrococcus luteus)	LC95 T. brucei [3]	MIC S. cerevisiae (Saccharomyces cerevisiae)	MIC S. aureus [4]	HC50 Erythrocytes (mouse red blood cells)	IC50 [5]	Hydrophobicity [6]
CC(C)C[C@H](NC(=O)[C@H](CC(C)C)NC(=O)[C@H](CC(N)=O)NC(=O)[C@H](CO)NC(=O)CNC(=O)[C@@H](NC(=O)[C@H](CCCCN)NC(=O)[C@H](CC(C)C)NC(=O)CNC(=O)[C@@H](NC(=O)[C@H](CCCCN)NC(=O)[C@H](CC(C)C)NC(=O)[C@H](CC(C)C)NC(=O)[C@H](CO)NC(=O)CNC(=O)[C@H](CC(C)C)NC(=O)[C@H](CC(C)C)NC(=O)[C@@H](N)CC(N)=O)[C@@H](C)O)C(C)C)C(N)=O [CPF-St7] (H-NLLGSLLKTGLKVGSNLL-NH2; N-terminus assumed)	>256 µM	128 µM (≈ 235 µg/mL)	2 µM (≈ 3.68 µg/mL)	2 to 64 µM	64 µM (≈ 118 µg/mL)	32 µM (≈ 58.9 µg/mL)	256 µM	128 µM	45,2 % TFA/AcN solvent
CC[C@H](C)[C@H](NC(=O)[C@H](C)NC(=O)[C@H](CC(=O)O)NC(=O)[C@H](CC(C)C)NC(=O)CNC(=O)CNC(=O)[C@H](CCCCN)NC(=O)[C@H](C)NC(=O)[C@H](Cc1ccccc1)NC(=O)[C@H](CCCCN)NC(=O)[C@H](CCCCN)NC(=O)[C@H](CC(C)C)NC(=O)CNC(=O)CNC(=O)[C@H](CC(C)C)NC(=O)[C@@H](NC(=O)[C@@H](NC(=O)[C@H](CO)NC(=O)[C@H](Cc1c[nH]c2ccccc12)NC(=O)[C@@H](NC(=O)CN)C(C)C)[C@@H](C)O)[C@@H](C)CC)C(=O)N[C@H](C(=O)N[C@@H](CC(N)=O)C(=O)N1CCC[C@H]1C(=O)N[C@@H](CCCCN)C(=O)O)C(C)C [XPF-St6] (H-GVWSTILGGLKKFAKGGLDAIVNPK-OH)	16 µM (≈ 41.1 µg/mL)	2 to 4 µM	0,5 µM	–	8 µM (≈ 20.6 µg/mL)	8 to 16 µM	64 µM	8 µM	–
CC(C)C[C@H](NC(=O)CNC(=O)[C@H](C)NC(=O)[C@@H](NC(=O)[C@H](CC(N)=O)NC(=O)[C@H](CO)NC(=O)[C@H](CC(C)C)NC(=O)[C@H](CC(C)C)NC(=O)CN)C(C)C)C(=O)N[C@@H](CC(C)C)C(=O)N[C@@H](CCCCN)C(=O)N[C@@H](CCC(N)=O)C(=O)N[C@@H](Cc1ccccc1)C(=O)N[C@@H](C)C(=O)N[C@@H](CCCCN)C(=O)NCC(=O)NCC(=O)N[C@H](C(=O)N[C@@H](CC(N)=O)C(=O)N[C@@H](C)C(=O)N[C@H](C(=O)N[C@@H](CC(C)C)C(=O)N[C@@H](CC(N)=O)C(=O)N1CCC[C@H]1C(=O)N[C@@H](CCCCN)C(=O)O)C(C)C)C(C)C [XPF-St7] (H-GLLSNVAGLLKQFAKGGVNAVLNPK-OH)	32 µM (≈ 80.3 µg/mL)	8 µM (≈ 20.1 µg/mL)	1 µM (≈ 2.51 µg/mL)	–	32 µM (≈ 80.3 µg/mL)	128 µM (≈ 321 µg/mL)	>256 µM	16 µM	–
CC[C@H](C)[C@H](NC(=O)[C@H](C)NC(=O)[C@H](CC(N)=O)NC(=O)[C@@H](NC(=O)CNC(=O)CNC(=O)[C@H](CCCCN)NC(=O)[C@H](C)NC(=O)[C@H](Cc1ccccc1)NC(=O)[C@H](CCCCN)NC(=O)[C@H](CCCCN)NC(=O)[C@H](C)NC(=O)[C@H](Cc1ccccc1)NC(=O)[C@H](CC(N)=O)NC(=O)[C@H](C)NC(=O)[C@@H](NC(=O)[C@H](CCCCN)NC(=O)[C@H](CO)NC(=O)[C@H](CCSC)NC(=O)[C@H](Cc1ccccc1)NC(=O)CN)C(C)C)C(C)C)C(=O)N[C@@H](CCSC)C(=O)N[C@@H](CC(N)=O)C(=O)N[C@@H](CCC(N)=O)C(=O)N[C@@H](CCCCN)C(=O)O [XPF-St8] (H-GFMSKVANFAKKFAKGGVNAIMNQK-OH)	4 µM (≈ 10.7 µg/mL)	1 µM (≈ 2.69 µg/mL)	0,5 µM	–	8 µM (≈ 21.5 µg/mL)	128 µM (≈ 344 µg/mL)	64 µM	16 µM	–
CC[C@H](C)[C@H](NC(=O)[C@H](Cc1ccccc1)NC(=O)CNC(=O)[C@H](CCCCN)NC(=O)[C@H](C)NC(=O)[C@H](Cc1ccccc1)NC(=O)[C@H](CCCCN)NC(=O)[C@H](CCCCN)NC(=O)[C@H](C)NC(=O)[C@H](CO)NC(=O)[C@H](Cc1c[nH]cn1)NC(=O)[C@H](C)NC(=O)[C@@H](NC(=O)[C@H](CCC(=O)O)NC(=O)[C@H](CCCCN)NC(=O)[C@H](CC(C)C)NC(=O)CN)C(C)C)C(=O)N[C@@H](CO)C(=O)NCC(=O)N[C@@H](CC(C)C)C(=O)N[C@H](C(=O)NCC(=O)N[C@@H](CO)C(=O)O)[C@@H](C)O [magainin-St1] (H-GLKEVAHSAKKFAKGFISGLTGS-OH)	>256 µM	64 µM (≈ 149 µg/mL)	32 µM (≈ 74.7 µg/mL)	–	128 µM (≈ 299 µg/mL)	>256 µM	>256 µM	> 256 µM	–
FIGALLGPLLNLLKa [PFQa-St1, homologue of pFQa encoded by xpf-St7]	–	–	–	–	–	–	–	–	55,4 % TFA/AcN solvent
GMATKAGTVLGKVTKAIIGAALa [PGLa-St3, predicted S. tropicalis skin peptide encoded by pgla-St3]	–	–	–	–	–	–	–	–	39,2 % TFA/AcN solvent
pQGLIGTLTAKQIKKa [levitide-St2, levitide-related peptide encoded by xpf-St5]	–	–	–	–	–	–	–	–	35,0 % TFA/AcN solvent
pQGLMGTLISKQMKKa [levitide-St1, levitide-related peptide encoded by xpf-St4]	–	–	–	–	–	–	–	–	31,6 % TFA/AcN solvent
